1 molecule from patent US12599592B2, “Therapeutic small molecules for treatment of pulmonary hypertension” (UNIVERSITY OF PITTSBURGH—OF THE COMMONWEALTH SYSTEM OF …, priority 2020, dated 2026) can be followed below.

Data set [1] concerns ISCU. Nature of the data set: Immunoblot of ISCU and GSTP1 in PAECs. Format: cell-based, human. How it is done:
(§1) For hypoxia exposure, cells were plated in 6-well cell culture plates at 1×10^5 cells/well, grown for 24 hr and placed into a normobaric hypoxia chamber (1% O2) for 24 h under specific treatment conditions. Namely, for I-BET and siLGALS8 exposures, cells were either pre-treated with I-BET/vehicle control (VC) or transfected with siLgals8/Scr for 24 h. Then, they were cultured in basal media at 1% 02. After 24 h, caspase activity and mitochondrial superoxide levels were quantified. To detect activation status of pSTAT1/STAT1 by immunoblot, cells were exposed to 8 h of hypoxia.
(§2) In IL-6/sIL-6R+hypoxia experiments, a human recombinant IL-6/IL-6R alpha protein chimera (25 ng/ml, Millipore) was administered at 70-80% confluency for 48 h in complete media along with vehicle control (DMSO, Sigma-41639). BRD2889 (1 uM) vs. vehicle control were added, as indicated, and placed into a hypoxia chamber for 24 h. The hypoxia chamber (modular incubator chamber) was obtained from Billups-Rothenberg Inc. (Del Mar, Calif) and placed in regulated CO2 incubator at 37° C.
Protein stability assay: The proteasome inhibitor MG132 (M7449, Sigma) was stored at −20° C. at a concentration of 10 mM diluted in dimethyl sulfoxide (DMSO). PAECs were exposed to MG132 ([…]) vs. DMSO vehicle control for 2 hr under hypoxia, prior to harvesting of cellular lysate for immunoblotting.
(§3) Immunoblot and densitometry: Cells were lysed in RIPA buffer (Sigma) along with 1× protease inhibitor cocktail (Sigma). Protein lysate was resolved by gradient 4%-15% SDS-PAGE gels and transferred onto a 0.2 μm PVDF membrane (Bio-Rad). Membranes were blocked in 5% non-fat milk in 1×PBST buffer for one hour at room temperature. Later, they were incubated in the presence of the primary antibody overnight at 4° C. and then appropriate HRP-conjugated secondary antibodies (Life Technologies). The following antibodies were used: human LGALS8 (AF1305, RnD Systems), mouse/rat Lgals8 (ab69631, Abcam), pSTAT1 (ab29045, Abcam) and STAT1 (ab47425, Abcam), GSTP1 (ab153949, Abcam), ISCU (14812-1-AP, Prointech), Glutathione (ab19534, Abcam), HIF2A (NB100-122, Novous), α-Tubulin (CP06, Millipore sigma), and ACTB (sc-47778, Santa Cruz). The immunoreactive bands were visualized with the Chemidoc XRS+system (Bio-Rad) using SuperSignal West Femto chemiluminescent substrates (Thermo Fisher Scientific). The images were later quantified using AlphaEaseFC software (Alpha Innotech).
On the technique in general: Immunoblotting shows a protein as a band on a membrane.

Data set [2] concerns PAECs. Nature of the data set: BrdU proliferation assay in PAECs. Format: cell-based, human. The protocol:
BrdU growth assay: Cell proliferation was assayed relative to day 0 using a BrdU Cell Proliferation Assay Kit (#6813, Cell Signaling) according to the manufacturer's protocol after incubation for 2 h with BrdU.

Data set [3] concerns the target T1, glutathione S-transferase (GST) activity / GSTP1 (Homo sapiens, UniProt P09211).
T1 construct: endogenous in cells; host or cells: primary human PAECs (hypoxia or IL-6/sIL-6R+hypoxia)
Briefly: GST activity in PAECs. Format: cell-based. The protocol: as §1, §2

Data set [4] deals with GST activity. Nature of the data set: GST activity in PASMCs. Format: cell-based, human. The conditions noted are these: IL-6/R + hypoxia, BRD2889 1 uM. How it is done:
as §2

Data set [5] concerns SU5416-hypoxic pulmonary arterial hypertension rats. Briefly: SU5416-hypoxia pulmonary arterial hypertension rat model. Format: in vivo, Sprague-Dawley rats. The protocol:
Briefly, 10 week old male Sprague-Dawley rats were injected i.p. with 20 mg/kg of SU5416 (Sigma), placed in normobaric hypoxia (10% O2) for 3 weeks and then transferred to normoxia for 2 weeks. During hypoxic exposure, chambers were opened twice a week for cleaning and replenishment of food and water. […] For BRD2889 vs. vehicle control dosing, i.p. injections every 5 days (5 mg/kg) were administered during the final two weeks of normoxia. Oxygen concentrations were continuously monitored with blood gas analyzers.
Following euthanasia, right ventricle/[left ventricle+septum]
Measurement of GST activity: The GST activity from lung tissue and PAECs was assayed using GST assay kit (Cayman, MI, USA) per the manufacturer's instructions.
Rodent echocardiography: Echocardiography was performed using a 15-45 MHz transthoracic transducer and a Visual Sonics Vevo 3100 system (Fujifilm). Inhaled isoflurane anesthesia was used at 2% in 100% O2 during positioning and hair removal and then decreased to isoflurane 0.8% during imaging.

Data set [6] deals with PASMCs. Nature of the data set: Apoptosis (caspase 3/7) in PASMCs. Type of data set: cell-based, human. Conditions: IL-6/sIL-6R + hypoxia. How it is done:
as §2
Cellular apoptosis: Caspase-3/7 activity was quantified using the Caspase-Glo 3/7 Assay (Promega), according to manufacturer's instructions. Caspase-3/7 activity was normalized to total protein content determined by BCA method (Thermo Fisher Scientific).

Data set [7] relates to C43 genes ISCU and mTOR. Nature of the data set: RT-qPCR of Cluster 43 genes in PASMCs. The conditions noted are these: BRD2889 5 uM. Format: cell-based, human. The text has this: Cell culture: Primary human pulmonary artery endothelial cells (PAECs) and human pulmonary artery smooth muscle cells (PASMCs) were purchased from Lonza (302-05A, CC-2581). Of note, the same two male donors were the source of all PAECs in the experiments shown. Two additional male donors were the source for all PASMCs in the experiments shown. Cells from these and any donors were characterized by flow cytometry for consistent expression of cell surface markers and by RNA (RT-qPCR) analysis of endothelial and smooth muscle gene expression. PAECs were cultured in EGM-2 media (CC-3121) along with supplements (CC-4133), and PASMCs were cultured in SmGM-2 culture media (Lonza, CC-3182) at 5% CO2 in a humidified incubator.
RT-qPCR analysis: Cells were lysis in 1 ml of QiaZol reagent (Qiagen). Total RNA content was extracted using the RNeasy kit (Qiagen), according to the manufacturer's instructions. Total RNA concentration was determined using a BioTek Synergy multimode plate reader. Messenger RNAs were reverse transcribed to generate cDNA using the Multiscript RT kit (Thermo Fisher Scientific). cDNA for specific gene targets was amplified and quantified via fluorescently-labeled Taqman primer sets and Taqman fast advanced master mix (Thermo Fisher Scientific) using an Applied Biosystems QuantStudio 6 Flex Real-Time PCR System.
(In general: Quantitative PCR measures a nucleic acid by following its amplification.)

The subject of data set [8] is ISCU. Nature of the data set: Immunoblot of ISCU and GSTP1 in PASMCs. Format: cell-based, human. The conditions noted are these: BRD2889 1 uM. The protocol:
as §2
as §3, with “The immunoreactive bands were visualized with the Chemidoc XRS+system (Bio-Rad) using SuperSignal West Femto chemiluminescent substrates (Thermo Fisher Scientific).” left out

[9] abbreviates: PAECs, IL-6/sIL-6R + hypoxia, BRD2889 1 uM.
The mark [10] stands for this setting: BRD2889 5 mg/kg i.p. every 5 days.

SMILES strings stand for the structures.

T1 sequence (P09211 2-210 limits assumed): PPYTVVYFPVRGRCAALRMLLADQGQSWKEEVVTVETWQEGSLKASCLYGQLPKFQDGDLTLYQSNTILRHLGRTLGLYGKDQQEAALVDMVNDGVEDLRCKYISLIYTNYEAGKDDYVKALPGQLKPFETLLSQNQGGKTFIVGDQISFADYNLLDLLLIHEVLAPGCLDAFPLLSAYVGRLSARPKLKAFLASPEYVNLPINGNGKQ

As for `COc1ccc(C#CC2CCCN(C(=O)/C=C/c3cc(OC)c(OC)c(OC)c3)C2=O)cc1` (centres unmarked) [BRD2889], the GSTP1 expression result in data set [1] (PAECs, IL-6/R + hypoxia) was “without altering”. For the same molecule, the “ISCU expression (immunoblot)” value in data set [1] (setting [9]) is listed as “reversed the decrease”. Besides, in data set [1] (hypoxic PAECs), the GSTP1 expression result is “did not affect” and the ISCU protein levels result is listed as “reversed hypoxia-dependent reduction”. Besides, the “proliferation (BrdU)” value in data set [2] (PAECs, IL-6/sIL-6R + hypoxia) is “increased proliferation”. In addition, the “proliferation (BrdU incorporation)” value in data set [2] (hypoxic PAECs) was “reversed the decrease”. In addition, the “hypoxia-induced decrease in proliferation” value in data set [2] (hypoxic PAECs with siRNA knockdown of ISCU) is “did not reverse”. The “GSTP1 (GST) activity” value in data set [3] (setting [9]) is recorded as “reversed the increase”. Further, in data set [3] (hypoxic PAECs), the GST enzyme activity entry is given as “reduced the hypoxic increase”. In addition, in data set [4], the GST activity result is recorded as “did not affect”. In data set [5] (setting [10]), the “Fulton index (RV/LV+S)” value is “reduced”, the “ISCU in CD31+ endothelium” value is listed as “increased”, the arteriolar muscularization entry was “reduced” and the “cleaved caspase-3 (CC-3) in CD31+ endothelium” value is “decreased”. In data set [5] (setting [10]), the “right ventricular systolic pressure (RVSP)” value is reported as “reduced”. Also, the “lung GST activity” value in data set [5] (BRD2889 5 mg/kg i.p. every 5 days, final 2 weeks in normoxia) was “decreased”. Moreover, in data set [5] (BRD2889 vs vehicle), the “left ventricular function (LVPW thickness, LVEF, LVFS)” value is “did not exhibit altered left ventricular function”. In addition, the ascites entry in data set [5] (three SU5416-hypoxic rats treated with drug) is “accumulation of mild ascites”. Further, in data set [6], the apoptosis entry is recorded as “only subtly changed”. Besides, in data set [7], the “hypoxia-induced reduction in ISCU transcript” value was “unaffected”. Besides, the mTOR transcript result in data set [7] (hypoxia) is reported as “no change”. Also, the GSTP1 protein expression entry in data set [8] (IL-6/R + hypoxia) is “did not affect”. Further, the ISCU protein result in data set [8] (IL-6/sIL-6R + hypoxia) is on record as “failed to rescue”.
